Results: patent publication US20240277637A1, “CAPSAICIN DERIVATIVES IN THE TREATMENT OF IDIOPATHIC PULMONARY FIBROSIS” (aXichem AB, priority 2021, published 2024)
Entries after “also recorded” stand apart in the source; their conditions may differ.

Experiments:
[1] = system: human bronchial epithelial cells; test: Clonogenic cell survival assay, bronchial epithelial cells with PDGF-AB (Example 3); format: cell-based; conditions: 10 ng/ml PDGF-AB, 14 days; for effect on clonogenic survival / PDGF inhibition (words): 0-10 μM
Description: (§1) Primary isolated human bronchial epithelial cells (NHBE) were used in this assay sourced from the American Tissue Culture Collection (Normal, Human (ATCC® BEAS-2B™)) and were cultured up to passage 6. […].
A clonogenic cell survival assay determines the ability of a cell to proliferate indefinitely. Cells were plated with increasing numbers (102 to 5×10^4) in 25 cm^2 flasks. SU9518, SU9518, a known inhibitor PDGF that has shown the ability to reduce radiation-induced fibroblast and endothelial cell activation, and phenylcapsaicin were used as positive controls. The cells were incubated with 0-10 μM (3% DMSO aqueous) of phenylcapsaicin, SU9518, and compounds 1 and 3-7 separately in the presence of 10 ng/ml PDGF-AB (Sigma Aldrich). The flasks were returned to the incubator for 14 days, after which they were stained with crystal violet (Sigma Aldrich). The colonies were counted and the surviving percentage was determined for clonogenic survival after correcting for plating efficiency.

[2] = system: human bronchial epithelial cells; test: Clonogenic cell survival assay, bronchial epithelial cells with PDGF-AB (Example 4); format: cell-based; conditions: 10 ng/ml PDGF-AB, 14 days; for effect on clonogenic survival / PDGF inhibition (words): 0-10 μM
Description: as §1
The effects of Phenylcapsaicin (2) on clonogenic survival of bronchial epithelial cells, by plating the cells with increasing numbers (102 to 5×104) in 25 cm^2 flasks were investigated. SU9518* and Phenylcapsaicin were used as positive controls. The cells were incubated with 0-10 μM (3% DMSO aqueous) of Phenylcapsaicin, SU9518, and compounds 8-12 separately in the presence of 10 ng/ml PDGF-AB (Sigma Aldrich). The flasks were returned to the incubator for 14 days, after which they were stained with crystal violet (Sigma Aldrich). The colonies were counted and the surviving percentage was determined for clonogenic survival after correcting for plating efficiency. The synthetic analogs were all calculated at 100% purity for molar concentrations.

Row | Compound | effect on clonogenic survival / PDGF inhibition (words) [1] | Clonogenic Survival Assay (percent) ([1]; 0.10 μM) [%] | Clonogenic Survival Assay (percent) ([1]; 0.50 μM) [%] | Clonogenic Survival Assay (percent) ([1]; 1.00 μM) [%] | Clonogenic Survival Assay (percent) ([1]; 2.00 μM) [%] | Clonogenic Survival Assay (percent) ([1]; 5.00 μM) [%] | Clonogenic Survival Assay (percent) ([1]; 10.00 μM) [%] | effect on clonogenic survival / PDGF inhibition (words) [2] | Clonogenic Survival Assay (percent) ([2]; 0.10 uM) [%] | Clonogenic Survival Assay (percent) ([2]; 0.50 uM) [%] | Clonogenic Survival Assay (percent) ([2]; 1.00 uM) [%] | Clonogenic Survival Assay (percent) ([2]; 2.00 uM) [%] | Clonogenic Survival Assay (percent) ([2]; 5.00 uM) [%] | Clonogenic Survival Assay (percent) ([2]; 10.00 uM) [%] | also measured
1 | COc1cc(CNC(=O)CCCC/C=C/C(C)C)ccc1O [Compound 1, capsaicin] | did not show any PDGF inhibition | 97 | 97 | 95 | 96 | 96 | 95 | no inhibition of PDGF was observed | 97 | 98 | 95 | 96 | 96 | 95 | effect on clonogenic survival / PDGF inhibition (words) ([1]; listed as capsaicin): no inhibition of PDGF was observed; Clonogenic Survival Assay (percent) ([1]; 10.00 μM, listed as capsaicin): 95%
2 | COc1cc(CNC(=O)CCCCC#CC2CCCCC2)ccc1O [Compound 3] | some modest activity | 91 | 83 | 77 | 74 | 71 | 73 | – | – | – | – | – | – | – | effect on clonogenic survival / PDGF inhibition (words) ([1]; listed as compound 3): PDGF inhibition activity dropped significantly; Clonogenic Survival Assay (percent) ([1]; 10.00 μM, listed as compound 3): 73%
3 | COc1cc(CNC(=O)CCCCC#CC(C)(C)C)ccc1O [Compound 4] | did not show any PDGF inhibition | 97 | 95 | 97 | 96 | 91 | 91 | – | – | – | – | – | – | – | effect on clonogenic survival / PDGF inhibition (words) ([1]; listed as compound 4): completely eliminated the PDGF inhibiting activity; Clonogenic Survival Assay (percent) ([1]; 10.00 μM, listed as compound 4): 91%
4 | COc1cc(CNC(=O)CCCCC#Cc2ccccc2)ccc1OC(C)=O [Compound 5, 2-Methoxy-4-[(6-phenyl-5-hexynylcarbonylamino)methyl]phenyl acetate] | greater PDGF inhibition than both the parent PheCap (2) and the positive control SU9518; also recorded: significant improvement in PDGF inhibiting activity | 78 | 60 | 45 | 32 | 30 | 20 | – | – | – | – | – | – | – | effect on clonogenic survival / PDGF inhibition (words) ([1]; listed as compound 5): significant improvement in PDGF inhibiting activity; Clonogenic Survival Assay (percent) ([1]; 10.00 μM, listed as compound 5): 20%
5 | COc1cc(CNC(=O)CCCCC#CC2CCCCC2)ccc1OC(C)=O [Compound 6] | some modest activity | 89 | 82 | 76 | 64 | 69 | 61 | – | – | – | – | – | – | – | effect on clonogenic survival / PDGF inhibition (words) ([1]; listed as compound 6): gave better results than compound 3
6 | COc1cc(CNC(=O)CCCCC#CC(C)(C)C)ccc1OC(C)=O [Compound 7] | did not show any PDGF inhibition | 99 | 96 | 96 | 91 | 94 | 93 | – | – | – | – | – | – | – | effect on clonogenic survival / PDGF inhibition (words) ([1]; listed as compound 7): could not mediate the negative effects of the tert-butyl group
7 | COc1cc(CNC(=O)CCCCCCc2ccccc2)ccc1O [Compound 8, N-[(4-Hydroxy-3-methoxyphenyl)methyl]7-phenylheptanamide] | – | – | – | – | – | – | – | did not show any reduction in clonogenic cell survival | 97 | 100 | 97 | 95 | 96 | 97 | –
8 | C#CCCCCC(=O)NCc1ccc(O)c(OC)c1 [Compound 9] | – | – | – | – | – | – | – | did not show any reduction in clonogenic cell survival | 100 | 97 | 99 | 96 | 96 | 99 | –
9 | COc1cc(CNC(=O)CCCCC#Cc2ccc([N+](=O)[O-])cc2)ccc1O [Compound 10, N-[(4-Hydroxy-3-methoxyphenyl)methyl]-7-(p-nitrophenyl)-6-heptynamide] | – | – | – | – | – | – | – | – | 73 | 55 | 51 | 40 | 41 | 39 | –
10 | COc1ccc(C#CCCCCC(=O)NCc2ccc(O)c(OC)c2)cc1 [Compound 11, N-[(4-Hydroxy-3-methoxyphenyl)methyl]-7-(p-methoxyphenyl)-6-heptynamide] | – | – | – | – | – | – | – | higher reduction than the lead phenylcapsaicin | 72 | 57 | 51 | 33 | 28 | 21 | effect on clonogenic survival / PDGF inhibition (words) ([2]; listed as compound 11): further improved
11 | COc1cc(CNC(=O)CCCCC#Cc2cccc3ccccc23)ccc1O [Compound 12, N-[(4-Hydroxy-3-methoxyphenyl)methyl]-7-(1-naphthyl)-6-heptynamide] | – | – | – | – | – | – | – | – | 81 | 79 | 61 | 53 | 48 | 32 | –
